Laboratory results published in patent US20240026301A1, “METHODS AND COMPOSITIONS FOR GENERATING ENDOTHELIAL CELLS FROM PLURIPOTENT STEM CELLS” (Trailhead Biosystems Inc., priority 2022, published 2024).
Entries after “also recorded” stand apart in the source; their conditions may differ.

Tests used:
[1] = tested on: PECAM1 (CD31); experiment: 8-factor HD-DoE experiments (qPCR, partial least squares models) optimized for maximum expression of PECAM1 (CD31), stage 2 differentiation; type: cell-based, human
Method: First, undifferentiated iPSC were grown for 48 h in CDM2 media containing 6 uM CHIR99021 (referred to herein as stage 1). Then stage 2 media was engineered. The basis of this was an 8-factor HD-DoE experiment with focus on differentiation of cells toward the endothelial lineage for an additional 3 days after termination of stage 1 treatment. To test the effectors, 48 different combinations of effectors generated using Design-of-Experiments compression through D-optimality were robotically prepared. The effector combinations were prepared in a basal media and were subsequently added to the cells, which were then allowed to differentiate. Three days later, RNA extraction was performed, and gene expression was obtained using quantitative PCR analysis. The data were normalized and modeled using partial least squares regression analysis to the effector design, resulting in the generation of gene-specific models, which after model tuning for maximal Q2 predictive power, provided explanation of the effectors ability to control the expression of individual genes, combinatorically, and individually. Solutions within the tested space could then be explored to address desirability. Optimizing for maximal expression of CD31 led to a robust solution. […] On this model, we observed high levels of KDR, important receptor for VEGF signaling.
This model was derived from initial testing of eight factors including: VEGF, FGF2, TTNBP, AGN194310, Y27632, Thymosin B4 and Heparin.
Next, we evaluated further factors to possibly increase the complexity of the signaling inputs to attain effective fate control. As previously, we focused on expression of CD31. Optimizing for maximal expression of the CD31 led to a robust solution. […] This model was derived from initial testing of eight factors including: YHHU-3792, DBZ, Pumorphamine, SANT1, LPA, YODA1, VEGF and B27. […] DBZ and LPA had low contributions factors and therefore were not used in the recipe.
To further improve the recipe for endothelial cell differentiation, we performed additional HD-DoE experiments. This model was derived from initial testing of eight factors including: VEGF, FGF2, Sphingosine 1 phosphate, VH298, Pyrintegrin, Erythropoetin, L-ascorbic acid and XAV939. […] On this model, we observed high levels of KDR, important receptor for VEGF signaling. […] Considering all the models analyzed, based on predicted conditions that maximize expression of endothelial enriched genes such as ERG, CDH5, CD31, FLI1, CD34, a complex recipe for endothelial differentiation was developed that is composed of 6 effectors, as shown below in Table 2: […]

[2] = tested on: CD31; experiment: Factor criticality analysis (dynamic profile analysis), CD31 expression level; type: cell-based, human; parameters: values of CD31, effector removed: unit not given here; conditions: FIG. 5 model; for values of CD31, effector present: all finalized factors present; for values of CD31, effector removed: named effector removed, other factors kept
Method: (§1) First, undifferentiated iPSC were grown for 48 h in CDM2 media containing 6 uM CHIR99021 (referred to herein as stage 1). Then stage 2 media was engineered. The basis of this was an 8-factor HD-DoE experiment with focus on differentiation of cells toward the endothelial lineage for an additional 3 days after termination of stage 1 treatment. To test the effectors, 48 different combinations of effectors generated using Design-of-Experiments compression through D-optimality were robotically prepared. The effector combinations were prepared in a basal media and were subsequently added to the cells, which were then allowed to differentiate. Three days later, RNA extraction was performed, and gene expression was obtained using quantitative PCR analysis. The data were normalized and modeled using partial least squares regression analysis to the effector design, resulting in the generation of gene-specific models, which after model tuning for maximal Q2 predictive power, provided explanation of the effectors ability to control the expression of individual genes, combinatorically, and individually. Solutions within the tested space could then be explored to address desirability.
(§2) To assess the impact of elimination of each validated factor on genes associated with the endothelial lineage, dynamic profile analysis was used and the expression levels of genes of interest were compared in the absence of each finalized factor while others are kept present.
(§3) In this analysis, removal of a finalized effector while keeping other factors was used to analyze the impact of factors on the expression levels of CD31, CD34, FLi1 and CDH5 (FIG. 5A).

[3] = tested on: CD34; experiment: Factor criticality analysis (dynamic profile analysis), CD34 expression level; type: cell-based, human; conditions: for values of CD34, effector present / values of CD34, effector removed: FIG. 5 model; for values of CD34, effector present: all finalized factors present; for values of CD34, effector removed / CD34 levels, effector removed: named effector removed; for values of CD34, effector removed: other factors kept
Method: as §1, §2, §3

[4] = tested on: CDH5; experiment: Factor criticality analysis (dynamic profile analysis), CDH5 expression level; type: cell-based, human; conditions: FIG. 5 model; for values of CDH5, effector present: all finalized factors present; for values of CDH5, effector removed: named effector removed, other factors kept
Method: as §1, §2, §3

[5] = tested on: FLI1; experiment: Factor criticality analysis (dynamic profile analysis), FLI1 expression level; type: cell-based, human; conditions: for values of FLI1, effector present: all finalized factors present; for values of Fli1, effector present / values of Fli1, effector removed: FIG. 6 model; for values of Fli1, effector present: all factors present
Method: as §1, §2, §3

[6] = tested on: PECAM1, CD34, CDH5 and FLI1; experiment: Dynamic profile analysis of expression levels relative to effector concentration (figure legends); type: cell-based, human; conditions: for impact on expression of PECAM1, CD34, CDH5 and FLI1: FIG. 5A-5B, slope of plots relative to effector concentration
Source text: FIG. 5A-5B show the dynamic profile analysis of expression levels of PECAM1, CD34, CDH5 and FLI1 relative to the concentration of 3 validated effectors.
FIG. 6A-6B show the dynamic profile analysis of expression levels of PECAM1, CD34, CDH5 and Fli1 relative to the concentration of 3 validated effectors.
as §2

[7] = tested on: CD31; experiment: Factor criticality analysis (dynamic profile analysis), CD31 expression level; type: cell-based, human; parameters: values of CD31, effector removed / CD31 levels, effector removed / CD31 levels before addition of the SHH agonist / CD31 levels after addition of the SHH agonist: unit not given here; conditions: for values of CD31, effector present / values of CD31, effector removed: FIG. 6 model; for values of CD31, effector present: all factors present
[8] = tested on: pluripotent stem cells; conditions: DMEM base media with ascorbic acid; GSK-inhibitor treatment; cited from earlier work
[9] = tested on: CDH5; experiment: Factor criticality analysis (dynamic profile analysis), CDH5 expression level; type: cell-based, human
[10] = model of FIG. 2, factors VEGF, FGF2, TTNBP, AGN194310, Y27632, Thymosin B4, Heparin, 3 days after stage 1
[11] = model of FIG. 3, factors YHHU-3792, DBZ, Pumorphamine, SANT1, LPA, YODA1, VEGF, B27
[12] = FIG. 7 model, L-ascorbic acid kept in the model
[13] = FIG. 7 model, named effector removed, L-ascorbic acid kept
[14] = model of FIG. 4, factors VEGF, FGF2, Sphingosine 1 phosphate, VH298, Pyrintegrin, Erythropoetin, L-ascorbic acid, XAV939
[15] = FIG. 6 model, all factors present

Row | Compound | factor contribution (positive impact on expression of genes of interest) [1, 10] | values of CD31, effector present [2] | values of CD31, effector removed [2] | values of CD34, effector present [3] | values of CD34, effector removed [3] | values of CDH5, effector present [4] | values of CDH5, effector removed [4] | values of FLI1, effector present ([5]; FIG. 5 model) | impact on expression of PECAM1, CD34, CDH5 and FLI1 [6] | factor contribution (positive impact on expression of genes of interest) [1, 11] | factor contribution (positive impact on expression of genes of interest) [1, 14] | other results
1 | heparin | 11 | 2000 | 1500 | 6500 | 4800 | 10000 | 5800 | 2883 | positive impact | – | – | –
2 | c1ccc2c(Oc3nc(Nc4ccc(N5CCOCC5)cc4)c4ncn(C5CCCCC5)c4n3)cccc2c1 [Pumorphamine] | – | – | – | – | – | – | – | – | – | – | – | CD31 levels after addition of the SHH agonist ([7]; FIG. 7 model, agent added): 400; CD31 levels before addition of the SHH agonist ([7]; FIG. 7 model, without the added agent): 800
3 | Cc1c[nH]c(-c2cnc(NCCNc3ccc(C#N)cn3)nc2-c2ccc(Cl)cc2Cl)n1 [CHIR99012] | – | – | – | – | – | – | – | – | – | – | – | yield of CD34+CD31+ cells prior to sorting [8]: 20-30%
4 | Cc1nn(-c2ccccc2)c(C)c1/C=N/N1CCN(Cc2ccccc2)CC1 [SANT1] | – | – | – | – | – | – | – | – | – | 16 | – | impact on PECAM1 and CDH5 expression ([6]; FIG. 7A-7B model): positive impact; CD31 levels, effector present [7, 12]: 808; CD31 levels, effector removed [7, 13]: 563; CDH5 levels, effector present [9, 12]: 2928; CDH5 levels, effector removed [9, 13]: 2340
5 | Oc1nc(-c2ccc(C(F)(F)F)cc2)nc2c1CSCC2 [XAV939] | – | – | – | – | – | – | – | – | – | – | 15 | CD34 levels, effector present [3, 15]: 7180; CD34 levels, effector removed ([3]; FIG. 6 model): 5836; values of Fli1, effector present [5]: 13400; values of Fli1, effector removed ([5]; named effector removed): 7300; impact on PECAM1 and Fli1 expression ([6]; FIG. 6A-6B model): positive impact; values of CD31, effector present [7]: 6500; values of CD31, effector removed ([7]; named effector removed): 2225
6 | VEGF | 39 | 2000 | 340 | 6500 | 1000 | 10000 | 0 | 4900 | positive impact | 32 | 42 | values of FLI1, effector removed ([5]; FIG. 5 model, named effector removed, other factors kept): 1035; impact on expression of all genes (PECAM1, CD34, CDH5 and Fli1) ([6]; FIG. 6A-6B model): positive impact; also recorded: critical; impact on expression of all genes (PECAM1, CD34, CDH5 and Fli1) ([6]; FIG. 7A-7B model): positive impact
7 | C[C@H](NC(=O)Cc1cc(F)cc(F)c1)C(=O)N[C@@H]1C(=O)N(C)c2ccccc2-c2ccccc21 [DBZ] | – | – | – | – | – | – | – | – | – | low | – | –
8 | C/C(=C\c1ccc(C(=O)O)cc1)c1ccc2c(c1)C(C)(C)CCC2(C)C [TTNBP] | 21 | 2000 | 1077 | 6500 | 4300 | 10000 | 2600 | 2883 | positive impact | – | – | –
9 | FGF2: FGFR agonist, e.g. recombinant human FGF2 | did not significantly impact the expression of CD31 | – | – | – | – | – | – | – | – | – | 16 | CD34 levels, effector removed ([3]; FIG. 6 model): did not change significantly; values of Fli1, effector present [5]: 1300; values of Fli1, effector removed ([5]; named effector removed): 500; impact on PECAM1, FLI1, and CDH5 expression ([6]; FIG. 6A-6B model): positive impact; values of CD31, effector present [7]: 6500; values of CD31, effector removed ([7]; named effector removed): 1990; values of CDH5, effector present [9, 15]: 19000; values of CDH5, effector removed ([9]; FIG. 6 model, named effector removed): 5000
